Experimental findings from US9518041B2, “(+)-5-(3,4-difluorophenyl)-5-[(3-methyl-2-oxopyridin-1(2H)-yl)methyl]imidazolidine-2,4-dione and drug containing same” (KAKEN PHARMACEUTICAL CO., LTD., priority 2013, dated 2016) are described below.

One data set has as its target T1, TACE (Homo sapiens, UniProt P78536).
T1 construct: made in house; host or cells: mammalian cells or insect cells
Nature of the data set: TACE inhibition test (in vitro), fluorescent synthetic substrate. Format: biochemical. The following applies: 37° C., 1.5 hours, read-out: TACE inhibitory activity, IC50 value. The method, then: The nucleotide sequence of TACE has been reported by Moss et al. (Moss, M. L. et al., Nature 1997, 385, 733-736). Accordingly, the cDNA of TACE was obtained according to the prescribed method from THP-1 cells or the like, and then incorporated the cDNA into an expression vector. Next, this vector was transformed into mammalian cells or insect cells, and TACE expression was obtained. […]
Namely, 90 μL of an enzyme solution prepared with an assay buffer A (50 mM tris-hydrochloric acid buffer (pH 7.5) including 200 mM sodium chloride, 5 mM calcium chloride, 10 μM zinc sulfate, and 2 mg/mL bovine serum albumin) and 90 μL of a fluorescent synthetic substrate prepared with an assay buffer B (50 mM tris-hydrochloric acid buffer (pH 7.5) including 200 mM sodium chloride, 5 mM calcium chloride, 10 μM zinc sulfate, and 0.05% PLURONIC F-68) were mixed together, and reacted at 37° C. for 1.5 hours. Enzyme activity was then determined by measuring with a fluorescence intensity meter (Labsystems, Fluoroskan Ascent) at an excitation wavelength of 355 nm and a measurement wavelength of 460 nm. […]

For a further data set, the target named is T2, human MMP-8 (Homo sapiens, UniProt P22894).
T2 construct: purchased Calbiochem 444229
T2 sequence (P22894 101-467): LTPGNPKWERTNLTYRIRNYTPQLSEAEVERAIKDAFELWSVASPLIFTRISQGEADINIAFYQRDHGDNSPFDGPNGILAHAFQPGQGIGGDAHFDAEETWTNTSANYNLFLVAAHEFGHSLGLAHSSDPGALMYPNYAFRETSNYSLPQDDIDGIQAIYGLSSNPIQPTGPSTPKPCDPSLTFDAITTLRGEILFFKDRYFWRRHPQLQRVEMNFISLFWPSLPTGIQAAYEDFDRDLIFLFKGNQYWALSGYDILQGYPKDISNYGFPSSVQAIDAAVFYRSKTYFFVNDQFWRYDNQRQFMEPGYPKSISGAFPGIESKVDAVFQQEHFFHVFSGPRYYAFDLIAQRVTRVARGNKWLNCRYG
Kind of data set: MMP-8 inhibition test. The following applies: read-out: Inhibitory activity (IC50, nM) MMP-8. Type of data set: biochemical. The method, then:
(§1) MMP inhibition tests can be carried out, for example, using a fluorescent synthetic substrate based on the methods described in Bickett et al. (D. Mark Bickett et al., Anal. Biochem., 1993, 212, 58-64) and Nagase et al. (H. Nagase et al., J. Biol. Chem., 1994, 269, 20952-20957). The method for each MMP inhibition test is shown below.
90 μL (29 ng) of human MMP-8 (Calbiochem #444229) was mixed with 10 μL of 10 mM APMA, and activated by reacting at 37° C. for 1 hour. 10 μL of the resultant enzyme solution was diluted to 90 μL with an assay buffer A. The mixture was added to 90 μL of a 20 μM fluorescent substrate (MOCAc-Pro-Leu-Gly-Leu-A2pr(Dnp)-Ala-Arg-NH2, Peptide Institute Inc., #3163-v) (SEQ ID NO: 3) prepared with an assay buffer B, and reacted at 37° C. for 5 hours. Enzyme activity was then determined by measuring with a fluorescence intensity meter (Labsystems, Fluoroskan Ascent) at an excitation wavelength of 320 nm and a measurement wavelength of 405 nm.
(§2) From the enzyme activity in the presence or the absence of the test substance, the inhibition rate was determined, and the 50% inhibitiory concentration (IC50) of the test substance was calculated.

The target in a further data set is T3, human MMP-9 (Homo sapiens, UniProt P14780).
T3 construct: purchased Calbiochem 444231
T3 sequence (P14780 107-707 limits assumed): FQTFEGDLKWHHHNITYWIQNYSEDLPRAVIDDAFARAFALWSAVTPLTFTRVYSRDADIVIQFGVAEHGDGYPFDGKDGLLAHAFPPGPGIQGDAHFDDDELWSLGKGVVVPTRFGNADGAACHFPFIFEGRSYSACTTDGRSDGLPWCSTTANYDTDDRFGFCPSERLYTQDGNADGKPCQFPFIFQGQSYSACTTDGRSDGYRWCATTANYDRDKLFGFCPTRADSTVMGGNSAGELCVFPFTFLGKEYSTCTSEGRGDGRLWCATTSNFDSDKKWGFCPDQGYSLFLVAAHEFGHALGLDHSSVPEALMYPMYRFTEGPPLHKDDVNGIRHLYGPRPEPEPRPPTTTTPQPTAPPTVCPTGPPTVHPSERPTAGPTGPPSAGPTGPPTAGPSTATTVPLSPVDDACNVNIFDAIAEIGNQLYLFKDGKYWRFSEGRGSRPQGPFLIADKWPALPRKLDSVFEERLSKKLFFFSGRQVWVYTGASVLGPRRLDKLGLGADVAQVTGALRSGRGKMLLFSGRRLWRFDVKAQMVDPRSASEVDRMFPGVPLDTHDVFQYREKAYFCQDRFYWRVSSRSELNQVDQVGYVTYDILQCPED
Kind of data set: MMP-9 inhibition test. As to conditions: read-out: Inhibitory activity (IC50, nM) MMP-9. Format: biochemical. The method, then: as §1
(§3) 90 μL (11 ng) of human MMP-9 (Calbiochem #444231) was mixed with 10 μL of 10 mM APMA, and activated by reacting at 37° C. for 2 hours. 10 μL of the resultant enzyme solution was diluted to 90 μL with an assay buffer A. The mixture was added to 90 μL of a 20 μM fluorescent substrate (Dnp-Pro-Cha-Gly-Cys(Me)-His-Ala-Lys(Nma)-NH2) (SEQ ID NO: 2) prepared with an assay buffer B, and reacted at 37° C. for 4 hours. Enzyme activity was then determined by measuring with a fluorescence intensity meter (Labsystems, Fluoroskan Ascent) at an excitation wavelength of 355 nm and a measurement wavelength of 460 nm.
as §2

In a further data set the target is T4, human MMP-13 (Homo sapiens, UniProt P45452).
T4 construct: purchased Calbiochem 444287
Nature of the data set: MMP-13 inhibition test. The following applies: read-out: Inhibitory activity (IC50, nM) MMP-13. Type of data set: biochemical. The method, then: as §1
as §3, with “(130” for “(11”, “MMP-13” for “MMP-9”, “#444287)” for “#444231)”, “1 hour.” for “2 hours.”
as §2

Data set [1] in a line: Solubility test in organic solvents (propylene glycol, butylene glycol). Format: physicochemical. The following applies: organic solvent or mixture, thermodynamic from solid. As to the method:
Under room temperature conditions, in a 0.5 mL polypropylene tube, (+)-5-(3,4-difluorophenyl)-5-[(3-methyl-2-oxopyridin-1(2H)-yl)methyl]imidazolidine-2,4-dione and (±)-5-(3,4-difluorophenyl)-5-[(3-methyl-2-oxopyridin-1(2H)-yl)methyl]imidazolidine-2,4-dione measured in advance for a suitable amount were prepared, respectively. In each tube, solvent (Propylene glycol (PG) or butylene glycol (BG)) was added with various amounts, e.g. 10 times, 20 times or 100 times amount of the test compound, and stirred with a vortex mixer. With a table ultrasonic washer set at 37° C., ultrasonication treatment was given for 10 minutes; after warming for an hour in a thermostat chamber, each were kept standing for 24 hours at room temperature. The test solutions were observed by sight to evaluate the states in accordance with the determination criterion given below.
Determination criterion consisted of the following two categories:
“Soluble”: Test compound dissolved; no undissolved substances confirmed by visual observation.
“Insoluble”: Test compound remains undissolved; undissolved substances confirmed by visual observation.

Structures are written as SMILES.

T1 sequence (P78536 215-824): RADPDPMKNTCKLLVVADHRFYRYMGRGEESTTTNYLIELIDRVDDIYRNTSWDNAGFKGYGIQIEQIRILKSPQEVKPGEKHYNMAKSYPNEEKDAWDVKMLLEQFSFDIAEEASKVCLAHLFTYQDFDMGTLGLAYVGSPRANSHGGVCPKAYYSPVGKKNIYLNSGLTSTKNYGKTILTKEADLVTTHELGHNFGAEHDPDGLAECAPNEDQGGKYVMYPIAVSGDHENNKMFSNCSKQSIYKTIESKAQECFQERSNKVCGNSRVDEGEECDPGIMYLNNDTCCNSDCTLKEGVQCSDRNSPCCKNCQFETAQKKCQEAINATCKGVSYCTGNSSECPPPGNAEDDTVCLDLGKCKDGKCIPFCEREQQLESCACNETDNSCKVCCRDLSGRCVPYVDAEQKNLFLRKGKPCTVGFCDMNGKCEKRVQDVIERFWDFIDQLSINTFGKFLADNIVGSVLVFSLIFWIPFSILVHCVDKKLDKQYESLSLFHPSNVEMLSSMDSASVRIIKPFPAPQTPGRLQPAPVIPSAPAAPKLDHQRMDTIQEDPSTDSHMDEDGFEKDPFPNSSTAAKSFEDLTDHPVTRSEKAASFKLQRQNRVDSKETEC

With `Cc1cccn(CC2(c3ccc(F)c(F)c3)NC(=O)NC2=O)c1=O` (single isomer, unassigned; (+)) [(+)-5-(3,4-difluorophenyl)-5-[(3-methyl-2-oxopyridin-1(2H)-yl)methyl]imidazolidine-2,4-dione], the IC50 was not above 0.1 µM at TACE, more than 10000 nM on human MMP-8, more than 10000 nM on human MMP-9 and more than 10000 nM at human MMP-13. In data set [1], the solubility at 24 h is more than 10000 µg/mL.

The IC50 is the concentration that inhibits the measured activity by half. As usually defined, the solubility is the concentration that dissolves in the medium under given conditions.
